Test results reported in patent US10058099B2, “Antimicrobial materials and methods” (University of Florida Research Foundation, Inc., priority 2011, dated 2018).
Converted amounts (≈) assume the structure as drawn. Where two headings read alike, the source gives them in different places.

What was measured:
[1] = system: E. coli biofilms; test: Minimum biofilm eradication concentration (MBEC) with the Calgary Biofilm Device; type: cell-based, Escherichia coli K-12; settings: for MBEC (dark) / MBEC (light): E. coli biofilm; for MBEC (dark): 24 h incubation in the dark; for MBEC (light): 1 h near-UV light (300-400 nm)
Description: (§1) Escherichia coli K-12 was obtained from the American Type Culture Collection (ATCC #10798), revived in Luria Broth (LB, Sigma) and stored in LB with 20% (v/v) glycerol at −70° C. Stock cultures maintained on agar (2% Difco) plates of LB were used to inoculate 50 mL cultures in liquid LB. E. coli was grown at 37° C. for 18 h. Bacteria were grown as a microbial biofilm using a Calgary Biofilm Device (CBD), commercially available as the MBEC™ assay, featuring 96 pegs protruding down from a microtiter plate lid and fitting into the wells of a standard 96-well microtiter plate. This device allows 96 identical biofilms to grow on the pegs at a time. Biofilms of E. coli were grown in each well using 150 μL of the culture diluted to 1×10^7 CFU (colony forming unit) following previous calibration. The biofilms were grown at 37° C. for 24 h in a shaker at 150 rpm.
The Minimum biofilm eradication concentration (MBEC) is the lowest concentration at which bacteria from a biofilm fail to regrow. The MBEC was also measured using the CBD and detailed procedure has been described elsewhere.^17, 18, 20 Biofilms were formed and washed as described above. The biofilms were then transferred to a plate containing saline with a gradient concentration of the OPEs (challenge plate). The samples exposed to light were incubated for 1 h in a LuzChem ORG photoreactor using Hitachi FL8BL-B (λ=300-400 nm) lamps, whereas the samples kept in the dark, were incubated for 24 h in a shaker at 150 rpm. The biofilms were then removed from the challenge plate and washed twice in a plate of saline solution to remove traces of OPEs. The biofilms were placed in a plate containing LB media (recovery plate) and sonicated for 10 min in an ultrasonic cleaner (VWR 97043-964) in order to recover the biofilm in the media solution through vibration. The recovery plate containing the biofilms was incubated in the dark at 37° C. for 24 h. To determine the MBEC, the growth of bacteria was evaluated in the recovery plate after incubation. […] Bacterial grown in a specific well indicates regrowth of planktonic bacteria from surviving biofilm, while clear wells indicate the eradication of the biofilms and the lack of bacteria regrowth.

[2] = system: E. coli K12 biofilms; test: Minimum inhibitory concentration (MIC) with the Calgary Biofilm Device (MBEC assay); type: cell-based, Escherichia coli K-12; settings: 24 h, dark, 37 °C, 90% inhibition of growth, OD 600 nm
Description: To screen the effectiveness of EO-OPEs shown above at killing bacteria residing in a biofilm, a Calgary Biofilm Device (CBD), commercially available as the MBEC™ assay was used to grow 96 equivalent biofilms at a time, and to determine the minimum inhibitory concentration (MIC). After incubating the CBD devise in Escherichia coli (E. coli K12) suspension in LB media for 24 hours, biofilms were uniformly formed on the CBD surface. The E. coli biofilms were then incubated with EO-OPEs for 24 hours to obtain their MIC values.
as §1
The minimum inhibitory concentration (MIC) represents the lowest concentration of antimicrobial required to inhibit the visible growth of a planktonic bacterial population. The MIC was determined using the CBD.^17, 18, 20 Biofilms were formed on the peg surface of the CBD as described above and then transferred to a 96-well microtiter plate containing 200 μL of saline (0.85% NaCl aqueous solution) and washed for 5 min to remove non-adherent bacteria. The biofilms were transferred to a plate containing 200 μL of LB with a gradient concentration of the OPEs (challenge plate). Each concentration was repeated eight times (one row of the plate). The biofilms were then incubated in the dark at 37° C. for 24 h. To determine the MIC, the growth of bacteria was evaluated in the challenge plate after incubation. The optical density of each well was measured at 600 nm and the MIC was calculated for 90% inhibition of growth compared with biofilms grown in LB only.

[3] = Singlet oxygen quantum yield, emission at 1270 nm; type: physicochemical; settings: CD3OD, 2'-acetonaphthone (ΦΔ = 0.79) as actinometer
Text: We carried out transient absorption experiments in methanol and water solutions. […] The lifetime of the transient absorption is in the microsecond range and in each case it is efficiently quenched by O2 indicating the absorption is due to the triplet excited state. By examination of the initial amplitudes of the transient absorption (ΔA, t=0, Table 1), we were able to qualitatively determine the relative triplet yield of these oligomers. […] To substantiate our hypothesis, we carried out studies to observe singlet oxygen emission in deuterated methanol (as the life time of the singlet oxygen is very short in […]).^21 As anticipated, each of the oligomers is capable of sensitizing the formation of singlet oxygen as observed by its characteristic emission at 1270 nm. Of the oligomers studied, (C) and (E) show a higher quantum yield for singlet oxygen generation (ΦΔ) which corroborates well with the photophysical studies described above.
Absorption and fluorescence spectra were recorded on a Cary 100 UV-Vis spectrophotometer and a Photon Technology International spectrofluorometer, respectively. The optical density of the solutions was adjusted to ˜0.7 at the excitation wavelength (355 nm) with the laser energy set at ˜7 mJ. Solutions were purged with argon for 45 min before making transient absorption spectroscopy measurements. Singlet oxygen quantum yields were measured using a Photon Technology International Quantamaster near-IR spectrophotometer equipped with an InGaAs photodiode detector, optical chopper and a lock in amplifier. See Table 1 and FIGS. 1-2 for results.

[4] = system: S. aureus; test: Viability of S. aureus cells after UV exposure or dark incubation with oligomer solution; type: cell-based; settings: for killing / deactivation of S. aureus: 10 min UV irradiation, 1 μg/mL printed for EO-OPE-DABCO
Description: FIG. 24 is a graph showing the viability of S. aureus cells with 1 μg/mL and 10 μg/mL of OPE-DABCO and EO-OPE-DABCO solution following exposure to UV light and incubation in dark.
[drawing 28] containing quaternary ammonium pendant groups based on 1,4-diazabicyclo-[2.2.2.]-octane (DABCO). It has been shown that the incorporation of the DABCO group into antimicrobials might amplify its ability to diffuse into the bacterial cell wall due to similarities between this moiety and the lipid layer. [Ref: Kenawy, E. R., S. D. Worley, and R. Broughton, The chemistry and applications of antimicrobial polymers: A state-of-the-art review. Biomacromolecules, 2007. 8(5): p. 1359-1384] Therefore, the binding of antimicrobials to the cytoplasmic membrane of the bacteria is increased by both ionic and van der Waals interactions. [Ref: Kenawy, E. R., S. D. Worley, and R. Broughton, The chemistry and applications of antimicrobial polymers: A state-of-the-art review. Biomacromolecules, 2007. 8(5): p. 1359-1384] These two oligomers have been employed to compare their antimicrobial activity both in the dark and under the UV light in regard to their structure difference.

[5] = Escherichia coli, K12BIOFILMS, read-out: MIC

Row | SMILES | MBEC (dark) [1] [µg/mL] | MIC [2, 5] [µg/mL] | killing of E. coli biofilm under near-UV light exposure ([1]; 1 h near-UV, in the concentration range tested) | dark killing of E. coli biofilm ([1]; 24 h dark, concentration range <1000 μg/mL) | MBEC (light) [1] [µg/mL] | ΦΔ (quantum yield for singlet oxygen generation) [3] | killing / deactivation of S. aureus [4] [%] | deactivation of S. aureus with increasing irradiation time ([4]; UV, irradiation longer than 10 min (FIG. 24)) [%] | MIC [2] [µg/mL] | bacteria surviving ([4]; S. aureus, 10 min incubation in the dark) [%]
1 | NC[C@H]1O[C@H](O[C@H]2[C@H](O)[C@@H](O[C@H]3O[C@H](CO)[C@@H](O)[C@H](N)[C@H]3O)[C@H](N)C[C@@H]2N)[C@H](O)[C@@H](O)[C@@H]1O [kanamycin, reference compound] | >1000 | 11.2 (≈ 23.1 µM) |  |  |  |  |  |  |  | 
2 | CCCCCC[N+]12CC[N+](CCCOc3cc(C#Cc4ccc(C(=O)OCC)cc4)c(OCCC[N+]45CC[N+](CCCCCC)(CC4)CC5)cc3C#Cc3ccc(C(=O)OCC)cc3)(CC1)CC2 [oligomer (A)] | >1000 | 52 | did not show any killing | did not exhibit any dark killing | >500 | 0.34 ± 0.03 | ~75 | ~99 | 51.7 | 
3 | CCCCCC[N+]12CC[N+](CCCOc3ccc(C#Cc4ccc(C#Cc5ccc(OCCC[N+]67CC[N+](CCCCCC)(CC6)CC7)cc5)cc4)cc3)(CC1)CC2 [oligomer (B)] | 200 | 14 |  |  | 60 | 0.20 ± 0.02 | 100 |  | 14.0 | < 10
4 | CCCCCC[N+]12CC[N+](CCCOc3ccc(C#Cc4ccc(C#Cc5ccc(OCCC[N+]67CC[N+](CCCCCC)(CC6)CC7)cc5)s4)cc3)(CC1)CC2 [oligomer (C)] | 150 | 15.8 |  |  | 60 | 0.46 ± 0.02 |  |  |  | 
